Usually viability, T/C stands for the ratio of treated to control. The term IC50 denotes the midpoint of a concentration-inhibition curve.

Experimental findings from PubChem BioAssay AID1919000 (Molecular Pharmacology Branch, DTP, NCI, 2023) are described below.

Where “and” joins values, the source holds several entries; their conditions need not be identical. Equal values may be shown once.

In the test the test system is 653999-131-R-J2-PDC complex spheroids, growth % test/control. Briefly: Anticancer human tumor 653999-131-R-J2-PDC patient-derived lung adenocarcinoma cell line growth inhibition [AhR]. Conditions: for viability, T/C: stronger effect = lower value. The method, boiled down:
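Spheroids combined tumor cells with HUVEC endothelial cells and human MSCs as stroma. AhR antagonists were paired with standard or investigational drugs, each dosed in half-log steps down from near clinical Cmax, or from 10 microM where Cmax was unknown.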

Where [1] appears, read: curve of first compound, second compound 0.1 µM.
The mark [2] stands for this setting: curve of first compound, second compound 0.316 µM.
The mark [3] stands for this setting: curve of first compound, second compound 1 µM.
The mark [4] stands for this setting: curve of first compound, second compound 3.16 µM.
The mark [5] stands for this setting: curve of first compound, second compound 10 µM.
The mark [6] stands for this setting: second compound 0.1 µM, first compound 0.0316 µM.
[7] abbreviates: second compound 0.1 µM, first compound 0.1 µM.
[8] abbreviates: second compound 0.1 µM, first compound 0.316 µM.
[9] abbreviates: second compound 0.1 µM, first compound 1 µM.
[10] abbreviates: second compound 0.1 µM, first compound 3.16 µM.
[11] abbreviates: second compound 0.1 µM, first compound 10 µM.
Where [12] appears, read: second compound 0.316 µM, first compound 0.0316 µM.
The mark [13] stands for this setting: second compound 0.316 µM, first compound 0.1 µM.
Setting [14] is: second compound 0.316 µM, first compound 0.316 µM.
[15] abbreviates: second compound 0.316 µM, first compound 1 µM.
Setting [16] is: second compound 0.316 µM, first compound 3.16 µM.
The mark [17] stands for this setting: second compound 0.316 µM, first compound 10 µM.
The mark [18] stands for this setting: second compound 1 µM, first compound 0.0316 µM.
Setting [19] is: second compound 1 µM, first compound 0.1 µM.
[20] abbreviates: second compound 1 µM, first compound 0.316 µM.
The mark [21] stands for this setting: second compound 1 µM, first compound 1 µM.
Setting [22] is: second compound 1 µM, first compound 3.16 µM.
Setting [23] is: second compound 1 µM, first compound 10 µM.
The mark [24] stands for this setting: second compound 3.16 µM, first compound 0.0316 µM.
[25] abbreviates: second compound 3.16 µM, first compound 0.1 µM.
[26] abbreviates: second compound 3.16 µM, first compound 0.316 µM.
[27] abbreviates: second compound 3.16 µM, first compound 1 µM.
[28] abbreviates: second compound 3.16 µM, first compound 3.16 µM.
Where [29] appears, read: second compound 3.16 µM, first compound 10 µM.
The mark [30] stands for this setting: second compound 10 µM, first compound 0.0316 µM.
The mark [31] stands for this setting: second compound 10 µM, first compound 0.1 µM.
Where [32] appears, read: second compound 10 µM, first compound 0.316 µM.
[33] abbreviates: second compound 10 µM, first compound 1 µM.
The mark [34] stands for this setting: second compound 10 µM, first compound 3.16 µM.
[35] abbreviates: second compound 10 µM, first compound 10 µM.
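Also: spheroids exposed to agents for seven days.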
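For viability, T/C in this document: 100% = DMSO vehicle control viability.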

`COc1ccc([C@@H](O)c2cc(-c3ncnc4cc(N5CCOCC5)ccc34)c(F)cc2Cl)nn1`: the viability, T/C is 112% and 97% and 106% (compound 0.0316 µM); 105% and 114% and 103% (compound 0.1 µM); 100% and 91.4% and 81.3% (compound 0.316 µM); 90.5% and 90.1% and 83.8% (compound 1 µM); 66.2% and 61.9% and 69.9% (compound 3.16 µM); 44.8% and 45.4% and 42.3% (compound 10 µM). The IC50 (curve of compound) was 7.57 µM and 7.28 µM and 7.56 µM.
As for `O=C(c1cc(Cc2n[nH]c(=O)c3ccccc23)ccc1F)N1CCN(C(=O)C2CC2)CC1` + CC(CO)NC(=O)c1cc(-c2ccc(Cl)cc2)nn(-c2cnn(C)c2)c1=O, the IC50 under setting [1] was more than 10 µM; the IC50 under setting [2] was more than 10 µM; the IC50 under setting [3] was more than 10 µM; the IC50 under setting [4] was more than 10 µM; the concentration for half-maximal inhibition (IC50) under setting [5] is more than 10 µM. Further, the viability, T/C reads like this: under setting [6], 82.1%; under setting [7], 89.5%; under setting [8], 81.5%; under setting [9], 83.6%; under setting [10], 79.9%; under setting [11], 76.9%. In addition, the viability, T/C was 91% under setting [12]; 97.5% under setting [13]; 96.1% under setting [14]; 84.2% under setting [15]; 81.1% under setting [16]; 78.7% under setting [17]. For the same compound, the viability, T/C under setting [18] was 84.7%; the viability, T/C under setting [19] was 90.4%; the viability, T/C under setting [20] was 89.5%; the viability, T/C under setting [21] is 85.6%; the viability, T/C under setting [22] was 81.7%; the viability, T/C under setting [23] was 79.5%. For the same compound, the viability, T/C is 95% under setting [24]; 86.6% under setting [25]; 93% under setting [26]; 85.5% under setting [27]; 84.6% under setting [28]; 78.3% under setting [29]. Also, the viability, T/C under setting [30] was 88%; the viability, T/C under setting [31] is 94.5%; the viability, T/C under setting [32] was 82.9%; the viability, T/C under setting [33] was 84.5%; the viability, T/C under setting [34] was 76.3%; the viability, T/C under setting [35] was 75.7%.
On to `Cn1ncnc1C1c2n[nH]c(=O)c3cc(F)cc(c23)NC1c1ccc(F)cc1` (stereo not given), for which the viability, T/C runs as follows: (compound 0.000316 µM) 94.2% and 105% and 97.9%; (compound 0.001 µM) 106% and 102% and 107%; (compound 0.00316 µM) 102% and 103% and 116%; (compound 0.01 µM) 91.6% and 96% and 101%; (compound 0.0316 µM) 94.2% and 95.2% and 105%; (compound 0.1 µM) 95.5% and 91.8% and 103%. The IC50 (curve of compound) is more than 0.1 µM.
With `Cc1cncc(-c2nc(NCCc3c[nH]c4ccccc34)c3ncn(C(C)C)c3n2)c1`, the viability, T/C was 92.6% [middle of 20 runs] (compound 0.1 µM), 97% [middle of 20 runs] (compound 0.316 µM), 101% [middle of 20 runs] (compound 1 µM) and 52% [middle of 20 runs] (compound 10 µM).
On to `CC1COCCN1c1cc(C2(S(C)(=N)=O)CC2)nc(-c2ccnc3[nH]ccc23)n1` (stereo not given) + CC(CO)NC(=O)c1cc(-c2ccc(Cl)cc2)nn(-c2cnn(C)c2)c1=O, for which the IC50 was 8.97 µM under setting [1]; more than 10 µM under setting [2]; more than 10 µM under setting [3]; 7.88 µM under setting [4]; 3.94 µM under setting [5]. For the same compound, the viability, T/C by setting is: under setting [6], 102%; under setting [7], 97.6%; under setting [8], 97.8%; under setting [9], 87.3%; under setting [10], 75.2%; under setting [11], 47.1%. Moreover, the viability, T/C runs as follows: under setting [12], 101%; under setting [13], 95.6%; under setting [14], 103%; under setting [15], 83.3%; under setting [16], 71.3%; under setting [17], 52.6%. In addition, the viability, T/C by setting is: under setting [18], 101%; under setting [19], 95.4%; under setting [20], 101%; under setting [21], 91%; under setting [22], 73.9%; under setting [23], 51.5%. Moreover, the viability, T/C was 92.7% under setting [24]; 107% under setting [25]; 100% under setting [26]; 88.8% under setting [27]; 55.6% under setting [28]; 48.5% under setting [29]. Also, the viability, T/C runs as follows: under setting [30], 111%; under setting [31], 98.5%; under setting [32], 100%; under setting [33], 78%; under setting [34], 51.5%; under setting [35], 41.8%.
`O=C(C=Cc1cccc(S(=O)(=O)Nc2ccccc2)c1)NO`: the viability, T/C is 91.5% and 94.1% and 91.6% (compound 0.0316 µM); 92.4% and 95.9% and 101% (compound 0.1 µM); 82.2% and 91.9% and 96.7% (compound 0.316 µM); 77% and 86.9% and 80.2% (compound 1 µM); 52.3% and 62.5% and 55.9% (compound 3.16 µM); 14.8% and 11.4% and 7.09% (compound 10 µM). Moreover, for the setting “curve of compound”, the IC50 is 3.45 µM and 4.2 µM and 3.56 µM.
For the compound `COc1ccc([C@@H](O)c2cc(-c3ncnc4cc(N5CCOCC5)ccc34)c(F)cc2Cl)nn1` + Cc1ccccc1N=Nc1ccc(NC(=O)c2ccnn2C)c(C)c1, the IC50 is 9.88 µM under setting [1]; more than 10 µM under setting [2]; more than 10 µM under setting [3]; more than 10 µM under setting [4]; 7.77 µM under setting [5]. Also, the viability, T/C under setting [6] is 101%; the viability, T/C under setting [7] is 105%; the viability, T/C under setting [8] is 88.7%; the viability, T/C under setting [9] is 74.2%; the viability, T/C under setting [10] was 66%; the viability, T/C under setting [11] was 48.6%. Besides, the viability, T/C is 114% under setting [12]; 114% under setting [13]; 88.7% under setting [14]; 83.6% under setting [15]; 65% under setting [16]; 51.8% under setting [17]. For the same compound, the viability, T/C reads like this: under setting [18], 96%; under setting [19], 94.5%; under setting [20], 109%; under setting [21], 87.6%; under setting [22], 62.8%; under setting [23], 54.9%. Further, the viability, T/C runs as follows: under setting [24], 96%; under setting [25], 107%; under setting [26], 98.7%; under setting [27], 88.1%; under setting [28], 67.9%; under setting [29], 54.5%. Besides, the viability, T/C runs as follows: under setting [30], 89.5%; under setting [31], 101%; under setting [32], 95.1%; under setting [33], 83.6%; under setting [34], 70.9%; under setting [35], 44.2%.
Turning to `O=C(C=Cc1cccc(S(=O)(=O)Nc2ccccc2)c1)NO` + CC(CO)NC(=O)c1cc(-c2ccc(Cl)cc2)nn(-c2cnn(C)c2)c1=O, the IC50 under setting [1] was found to be 3.73 µM; the half-inhibitory concentration (IC50) under setting [2] came out at 3.66 µM; the IC50 under setting [3] was determined as 4.13 µM; the IC50 under setting [4] is 3.52 µM; the IC50 under setting [5] is 3.64 µM. For the same compound, the viability, T/C reads like this: under setting [6], 102%; under setting [7], 102%; under setting [8], 100%; under setting [9], 91.8%; under setting [10], 57.3%; under setting [11], 6.62%. Further, the viability, T/C under setting [12] is 109%; the viability, T/C under setting [13] is 117%; the viability, T/C under setting [14] was 95.9%; the viability, T/C under setting [15] was 96.3%; the viability, T/C under setting [16] is 55%; the viability, T/C under setting [17] was 7.7%. The viability, T/C by setting is: under setting [18], 108%; under setting [19], 104%; under setting [20], 114%; under setting [21], 98.5%; under setting [22], 63.4%; under setting [23], 6.59%. Further, the viability, T/C is, setting by setting: under setting [24], 107%; under setting [25], 114%; under setting [26], 105%; under setting [27], 90.2%; under setting [28], 54.3%; under setting [29], 10.5%. The viability, T/C reads like this: under setting [30], 107%; under setting [31], 111%; under setting [32], 105%; under setting [33], 100%; under setting [34], 56.2%; under setting [35], 4.99%.
